From EP0337503B1, “Fumigation methods and compositions” (Entek Corporation, priority 1983, dated 1984)

Legend:
[1] = test system: Phytophthora cinnamomi; assay: Fungicidal test, radial growth of mycelia colonies; assay type: cell-based
Experimental: (§1) Thiocarbonate solutions are used in a test of their fungicidal properties. Cultures of four plant pathogenic fungi are grown upon potato dextrose agar at room temperature, in diffuse natural lighting. After one week, square blocks having 2 millimeter sides are cut from the edges of actively growing mycelia spots on the agar.
(§2) The blocks are immersed in sterile deionized water, as a control, or in dilutions of thiocarbonate solutions using the sterile water, in a closed container. Subsequently, the blocks are removed and placed upon agar in clean plates, and mycelia are allowed to grow for one week.
(§3) Radial growth of mycelia colonies is measured for each of the six to eight replicate plates used for a particular fungus, and average colony radius is calculated. Percent control is defined by the following equation: Percent control =[1-((Average radius of treated plates)/(Average radius of control plates))]x100 [formula]
(§4) Concentrations given for solutions used to treat the agar blocks are expressed in grams of thiocarbonate solution per liter of diluted solution.

[2] = test system: Sclerotium rolfsii; assay: Fungicidal test, radial growth of mycelia colonies; assay type: cell-based
Experimental: as §1, §2, §3, §4

[3] = test system: Fusarium oxysporum; assay: Fungicidal test, radial growth of mycelia colonies; assay type: cell-based
Experimental: as §1, §2, §3, §4

[4] = test system: Verticillium dahliae; assay: Fungicidal test, radial growth of mycelia colonies; assay type: cell-based
Experimental: as §1, §2, §3, §4

[5] = Storage stability: loss of ability of aqueous solutions to generate carbon disulfide upon contact with strong acid; assay type: physicochemical; conditions: aqueous solutions of tetrathiocarbonate salts, about 14 to about 16 percent by weight carbon disulfide equivalent, air-tight glass containers, 49° C.
Experimental: Various tetrathiocarbonate salts are evaluated for storage stability by measuring the loss of the ability of aqueous solutions thereof to generate carbon disulfide upon contact with strong acid. Aqueous solutions of the salts listed in the following table, having an equivalent of from about 14 to about 16 percent by weight carbon disulfide, are stored in air-tight glass containers at a temperature of 49° C.

[6] = Effect of pH on production of CS2 from thiocarbonates in citrate-phosphate buffers, gas chromatography of air; assay type: physicochemical
Experimental: Pure carbon disulfide is also injected, for comparison. A syringe is used to periodically sample air in the bottle, and the air is analyzed by gas chromatography.

[7] = test system: root-knot nematode larvae (Meloidogyne incognita); assay: Greenhouse nematocide experiment with tomato plants, soil drench, root gall count; assay type: in vivo; conditions: 30 days; for Gall Counts, replicate 3: control 1; for Gall Counts, Mean: control 4.0; for Gall Counts, replicate 2: control 7; for Gall Counts, replicate 1: control 4
Experimental: In the experiment, thirty containers are used, each containing about 500 grams of sterilized sandy loam soil. Each container contains one tomato plant. Each container is injected with four 5-milliliter portions of extract from nematode-infested pepper roots, one inch below the soil surface, producing an initial population of 2000 root-knot nematode larvae (Meloidogyne incognita) per container.
Ten treatments are replicated three times, each treatment consisting of drenching the soil with a solution containing the fumigant to provide the dosage of CS2 given in the following table. The solutions are diluted with sufficient water to saturate the soil. The treatments include calcium tetrathiocarbonate, stabilized ammonium tetrathiocarbonate, and carbon disulfide at three levels, plus an untreated control. After drenching, each container is allowed to stand at ambient conditions. The plants are harvested after 30 days of growth, and soil is removed from the roots by a gentle washing with water. By use of a magnifying glass, the number of root galls is counted on each plant.
Results are summarized below, wherein the "Application" represents milligrams of treatment per kilogram of soil, calculated as the thiocarbonate salt and the equivalent carbon disulfide. Gall counts are mean values from the three replicates.

[8] = Decomposition in sandy loam soil at different moisture, CS2 in air space by gas chromatography; assay type: physicochemical; conditions: hours to maximum CS2 concentration in the air space
Experimental: A sandy loam soil is placed in 1-liter glass bottles, fitted with stoppers having fluorocarbon liners and silicone rubber septa, to give a soil depth of about 4 cm. […] Thiocarbonate solution or carbon disulfide is injected near the bottom of the soil layer, the bottles are promptly sealed, and the air space in the bottles is sampled at intervals with a syringe, for gas chromatographic analysis of CS2. Results are summarized below, wherein degradation time is the number of hours required to achieve the maximum CS2 concentration in the air space.

[9] = 100 g/l thiocarbonate solution per liter of diluted solution
[10] = highest application: 638/89 ppm ((NH4)2CS4·(NH4)2S), 730/91 (CaCS4), 97 ppm (CS2)
[11] = lowest application: 213/30 ppm ((NH4)2CS4·(NH4)2S), 245/31 (CaCS4), 32 ppm (CS2)
[12] = middle application: 425/60 ppm ((NH4)2CS4·(NH4)2S), 490/61 (CaCS4), 65 ppm (CS2)

S=C(S)SS [Na2CS4 (10.6%CS2), sodium tetrathiocarbonate]
Percent Control Phytophthora cinnamomi ([1]; 10 g/l): 37%
inhibition of growth at 100000 µg/mL ([1]; Phytophthora cinnamomi, 168 h, 100 g/l, read-out: Percent Control Phytophthora cinnamomi): 100%
Percent Control Sclerotium rolfsii ([2]; 10 g/l): 100%
inhibition of growth at 100000 µg/mL ([2]; Agroathelia rolfsii, 168 h, 100 g/l, read-out: Percent Control Sclerotium rolfsii): 100%
Percent Control Fusarium oxysporum ([3]; 1 g/l): 4%
Percent Control Fusarium oxysporum ([3]; 10 g/l): 6%
Percent Control Fusarium oxysporum [3, 9]: 100%
Percent Control Verticillium dahliae ([4]; 1 g/l): 23%
inhibition of growth ([4]; Verticillium dahliae, 168 h, 10 g/l, read-out: Percent Control Verticillium dahliae): 26%
inhibition of growth at 100000 µg/mL ([4]; Verticillium dahliae, 168 h, 100 g/l, read-out: Percent Control Verticillium dahliae): 100%
Half-life (months) ([5]; listed as Na^+): 3.0 months

stabilized ammonium tetrathiocarbonate [(NH4)2CS4·(NH4)2S]
Half-life (minutes) for production of carbon disulfide ([6]; pH 5.2, 125 milligrams per liter of thiocarbonate ion): 1 min
Half-life (minutes) for production of carbon disulfide ([6]; pH 6.0, 125 milligrams per liter of thiocarbonate ion): 1 min
Half-life (minutes) for production of carbon disulfide ([6]; pH 7.0, 125 milligrams per liter of thiocarbonate ion): 2.1 min
Half-life (minutes) for production of carbon disulfide ([6]; pH 8.0, 125 milligrams per liter of thiocarbonate ion, CaCS4 values above pH 7 called unreliable): 9.2 min
Half-life (minutes) for production of carbon disulfide ([6]; pH 9.0, 125 milligrams per liter of thiocarbonate ion, CaCS4 values above pH 7 called unreliable): 26.1 min
Percent Control Phytophthora cinnamomi ([1]; 1 g/l): 97%
Percent Control Phytophthora cinnamomi ([1]; 10 g/l): 74%
Percent Control Phytophthora cinnamomi ([1]; 100 g/l): 100%
Percent Control Sclerotium rolfsii ([2]; 1 g/l): 49%
Percent Control Sclerotium rolfsii ([2]; 10 g/l): 93%
Percent Control Sclerotium rolfsii ([2]; 100 g/l): 100%
Percent Control Fusarium oxysporum ([3]; 1 g/l): 70%
Percent Control Fusarium oxysporum ([3]; 10 g/l): 100%
Percent Control Fusarium oxysporum [3, 9]: 100%
Percent Control Verticillium dahliae ([4]; 1 g/l): 41%
Percent Control Verticillium dahliae ([4]; 10 g/l): 81%
Percent Control Verticillium dahliae ([4]; 100 g/l): 91%
Gall Counts, replicate 3 [7, 10]: 2
Gall Counts, Mean [7, 10]: 4.3
Gall Counts, replicate 2 [7, 10]: 5
Gall Counts, replicate 1 ([7]; highest application: 638 ppm salt/89 ppm Eq. CS2 ((NH4)2CS4·(NH4)2S), 730/91 (CaCS4), 97 ppm (CS2)): 6
Gall Counts, replicate 3 [7, 11]: 3
Gall Counts, Mean [7, 11]: 5.0
Gall Counts, replicate 2 [7, 11]: 7
Gall Counts, replicate 1 ([7]; lowest application: 213 ppm salt/30 ppm Eq. CS2 ((NH4)2CS4·(NH4)2S), 245/31 (CaCS4), 32 ppm (CS2)): 5
Gall Counts, replicate 3 [7, 12]: 6
Gall Counts, Mean [7, 12]: 10.0
Gall Counts, replicate 2 [7, 12]: 15
Gall Counts, replicate 1 ([7]; middle application: 425 ppm salt/60 ppm Eq. CS2 ((NH4)2CS4·(NH4)2S), 490/61 (CaCS4), 65 ppm (CS2)): 9
Degradation Time ([8]; Soil Moisture 0 % of Saturation): 2 h
Degradation Time ([8]; Soil Moisture 50 % of Saturation): 3 h
Degradation Time ([8]; Soil Moisture 100 % of Saturation): 48 h

S=C(S)SS [NH4^+, ammonium tetrathiocarbonate]
Half-life (months) [5]: 0.17 months
